Source: US20160207904A1, “CRYSTALLINE 2-HYDROXY-6-((2-(1-ISOPROPYL-1H-PYRAZOL-5-YL)PYRIDIN-3-YL)METHOXY)BENZALDEHYDE ANSOLVATE SALTS” (GLOBAL BLOOD THERAPEUTICS, INC., priority 2013, published 2016)

Columns and labels:
Type in all cases: physicochemical
[1] = Physical stability of crystal forms at ambient conditions; conditions: converted into Form I or a mixture of Form I and its free base
From the text: Methods: Three crystal forms of 2-hydroxy-6-((2-(1-isopropyl-1H-pyrazol-5-yl)pyridin-3-yl)methoxy)benzaldehyde hydrochloride with different XRPD patterns were identified in this study based on a matrix of crystallizations in various solvents, screened in 96-wells as described below. An initial drug substance was assigned as Form I. Form I was also obtained in numerous conditions during solvent crystallization in the 96-well screen and in slurry studies. Form II and Form III were also generated. Solids obtained were characterized by X-ray powder diffraction (XRPD), differential scanning calorimetry (DSC), thermogravimetry (TGA), polarizing microscope (PLM) and Fourier transform infrared spectrometer (FTIR).
(§1) In an interconversion study, a mixture of all identified crystal forms turned into Form I after slurry experiments in ethyl acetate or ethanol. […] The XRPD patterns and microscopy images of the three crystal forms are shown in FIG. 6 and FIG. 7, respectively.

[2] = Interconversion study (slurries of mixed forms in ethyl acetate or ethanol, XRPD); conditions: ambient condition, hydrochloride
Method: as §1
Interconversion Study: Interconversion experiments were carried out by making slurries containing the same amount of different forms solids in ethyl acetate or ethanol. The slurries were kept stirring for days at ambient condition. The insoluble solids were recovered by filtration and examined using XRPD.
Interconversion experiments were performed with the various crystalline forms. Samples of equal amount of Form I mixed with Form II in solvents (ethyl acetate or ethanol) were slurried at ambient condition with covering. The remaining solids were collected by filtration and examined by XRPD. […] Some observed differences in the —OH stretch region at 3500 cm−1 in FTIR were most likely due to the preferred orientation which may be caused by particle size and morphology difference.

[3] = Heating to 80° C. by TGA, then XRPD; conditions: heated to 80° C. by TGA
Method: Powder X-RayDiffraction (XRPD): The solid samples were examined using X-ray diffractometer (Bruker D8 advance). The system is equipped with LynxEye detector. The samples were scanned from 3 to 40° 2θ, at a step size 0.02° 2θ. The tube voltage and current were 40 KV and 40 mA respectively. The sample was transferred from sample container onto zero background XRD holder and gently ground. TGA Analysis: TGA analysis was carried out on a TA Instruments TGA Q500. Samples was placed in a tarred platinum or aluminum pan, automatically weighed and inserted into the TGA furnace. The samples were heated at a rate of 10° C./min to final temperature of 300° C. The purge gas is nitrogen for balance at 40 ml/min and for the sample at 60 ml/min, respectively. Scale-up of Form II: 60 mg or 40 mg of Compound 1 hydrochloride was dissolved in 3 mL of ethanol or 1-butanol, respectively. Both solutions were filtered, filtrates were collected and then the two filtrates were combined in (1:1) volume ratio. The resulting solution was allowed to evaporate at ambient condition to dryness to yield Form II.

[4] = Dynamic vapor sorption (DVS); conditions: at 80% RH, 25.0±1.0° C.
Method: Dynamic Vapor Sorption (DVS): Dynamic moisture adsorption and desorption was studied using IGA Sorp (Hidden Isochema Ltd.Warrington, UK). About 5 mg (3˜5 mg) of a prepared sample was placed in a sample basket and hung in the measuring chamber of an IGA Sorp. For an isotherm test, the chamber temperature is maintained by a water bath at constant 25.0±1.0° C. The sample was tested at a targeted RH range from 0% to 90% full cycle in step mode. The analysis is performed in 10% increment. Time duration at each RH was set as […] Solid State Characterizaton: Form I of Compound 1 hydrochloride was characterized by XRPD (FIG. 1), TGA (FIG. 2), DSC (FIG. 3), DVS (FIG. 4). […] The crystal form of the initial drug substance is assigned as Form I.

| stability of crystal form at ambient conditions [1] | XRPD after heating [3] | water picked up (DVS profile) [4] | Compound | outcome of interconversion (slurry) experiments / relative thermodynamic stability [2] |
| --- | --- | --- | --- | --- |
| unstable at ambient conditions |  |  | CC(C)n1nccc1-c1ncccc1COc1cccc(O)c1C=O.Cl [Form III, 2-hydroxy-6-((2-(1-isopropyl-1H-pyrazol-5-yl)pyridin-3-yl)methoxy)benzaldehyde hydrochloride] |  |
| unstable at ambient conditions | remained unchanged |  | CC(C)n1nccc1-c1ncccc1COc1cccc(O)c1C=O.Cl [Form II, 2-hydroxy-6-((2-(1-isopropyl-1H-pyrazol-5-yl)pyridin-3-yl)methoxy)benzaldehyde hydrochloride] | transforms almost entirely to Form I crystals |
|  |  | < 1% | CC(C)n1nccc1-c1ncccc1COc1cccc(O)c1C=O.Cl [Form I, 2-hydroxy-6-((2-(1-isopropyl-1H-pyrazol-5-yl)pyridin-3-yl)methoxy)benzaldehyde hydrochloride] | the most thermodynamically stable form |
